pEC50, pIC50, pKi: −log10 of the molar value. Calls of active or inactive are those of the source. No cut-off for these calls is given here.
Legend:
[1] = molecular target: T1, 5-hydroxytryptamine receptor 2B (Homo sapiens, UniProt P41595); assay: Displacement of [3H]-LSD from human 5-HT2B receptor expressed in HEK cells after 90 mins by microbeta scintillation counting analysis; format: cell-based
[2] = molecular target: T2, 5-hydroxytryptamine receptor 1D (Homo sapiens, UniProt P28221); assay: Displacement of [3H]5-CT from human 5-HT1D receptor expressed in HEKT cells after 90 mins by microbeta scintillation counting analysis; format: cell-based
T2 sequence (P28221 whole entry): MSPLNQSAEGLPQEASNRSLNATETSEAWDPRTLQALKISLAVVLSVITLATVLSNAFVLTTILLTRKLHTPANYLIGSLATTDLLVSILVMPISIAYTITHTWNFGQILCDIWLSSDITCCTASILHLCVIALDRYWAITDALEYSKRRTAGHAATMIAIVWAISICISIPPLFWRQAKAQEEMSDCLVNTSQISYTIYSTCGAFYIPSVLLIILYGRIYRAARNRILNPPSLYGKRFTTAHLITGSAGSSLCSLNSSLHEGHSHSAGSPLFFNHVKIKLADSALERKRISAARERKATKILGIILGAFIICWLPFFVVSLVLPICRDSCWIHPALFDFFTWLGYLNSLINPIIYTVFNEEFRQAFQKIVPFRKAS

[3] = molecular target: T3, 5-hydroxytryptamine receptor 1E (Homo sapiens, UniProt P28566); assay: Displacement of [3H]5-HT from human 5-HT1E receptor expressed in HEK cells after 90 mins by microbeta scintillation counting analysis; format: cell-based
T3 sequence (P28566 whole entry): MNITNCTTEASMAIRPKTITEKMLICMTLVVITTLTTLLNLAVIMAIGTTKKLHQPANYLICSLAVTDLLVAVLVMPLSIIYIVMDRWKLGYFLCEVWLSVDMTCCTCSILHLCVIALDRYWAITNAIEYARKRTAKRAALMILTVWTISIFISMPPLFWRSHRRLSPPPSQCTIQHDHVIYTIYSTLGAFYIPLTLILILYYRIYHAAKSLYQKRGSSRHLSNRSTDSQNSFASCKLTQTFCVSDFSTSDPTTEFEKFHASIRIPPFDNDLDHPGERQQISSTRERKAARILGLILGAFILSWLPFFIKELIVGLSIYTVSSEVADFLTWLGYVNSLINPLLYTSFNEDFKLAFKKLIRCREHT

[4] = molecular target: T4, 5-hydroxytryptamine receptor 2A (Homo sapiens, UniProt P28223); assay: Displacement of [3H]Ketanserin from 5-HT2A (unknown origin) receptor after 90 mins by microbeta scintillation counting analysis
T4 sequence (P28223 whole entry): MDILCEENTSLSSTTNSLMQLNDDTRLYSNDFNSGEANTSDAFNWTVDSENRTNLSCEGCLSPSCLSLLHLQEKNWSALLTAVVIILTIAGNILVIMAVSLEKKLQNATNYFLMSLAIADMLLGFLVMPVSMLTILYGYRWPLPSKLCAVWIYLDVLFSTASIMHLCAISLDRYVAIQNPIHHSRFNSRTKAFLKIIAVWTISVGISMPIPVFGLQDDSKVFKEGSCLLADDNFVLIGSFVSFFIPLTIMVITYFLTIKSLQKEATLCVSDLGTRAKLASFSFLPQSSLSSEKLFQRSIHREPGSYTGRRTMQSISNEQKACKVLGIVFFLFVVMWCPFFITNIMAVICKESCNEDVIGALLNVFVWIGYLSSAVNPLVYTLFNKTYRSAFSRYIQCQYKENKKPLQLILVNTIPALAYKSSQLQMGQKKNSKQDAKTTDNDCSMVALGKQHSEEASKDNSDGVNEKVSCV

[5] = molecular target: T5, 5-hydroxytryptamine receptor 2C (Homo sapiens, UniProt P28335); assay: Displacement of [3H]-Mesulergine from human 5-HT2C receptor expressed in HEKT cells after 90 mins by microbeta scintillation counting analysis; format: cell-based
T5 sequence (P28335 whole entry): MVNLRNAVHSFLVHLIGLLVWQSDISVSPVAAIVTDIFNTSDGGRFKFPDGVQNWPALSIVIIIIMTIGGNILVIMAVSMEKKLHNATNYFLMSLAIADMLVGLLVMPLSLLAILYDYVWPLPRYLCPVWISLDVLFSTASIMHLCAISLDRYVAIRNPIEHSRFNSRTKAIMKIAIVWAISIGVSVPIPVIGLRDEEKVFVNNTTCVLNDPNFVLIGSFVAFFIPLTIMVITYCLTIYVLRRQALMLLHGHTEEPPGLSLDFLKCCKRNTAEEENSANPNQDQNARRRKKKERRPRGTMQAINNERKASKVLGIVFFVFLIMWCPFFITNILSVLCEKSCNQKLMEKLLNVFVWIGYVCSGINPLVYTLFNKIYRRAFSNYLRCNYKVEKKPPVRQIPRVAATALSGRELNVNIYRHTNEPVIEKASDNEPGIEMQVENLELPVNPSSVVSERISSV

[6] = molecular target: T6, 5-hydroxytryptamine receptor 3A (Homo sapiens, UniProt P46098); assay: Displacement of [3H]-GR65630 from human 5-HT3 receptor expressed in HEKT cells after 90 mins by microbeta scintillation counting analysis; format: cell-based
T6 sequence (P46098 whole entry): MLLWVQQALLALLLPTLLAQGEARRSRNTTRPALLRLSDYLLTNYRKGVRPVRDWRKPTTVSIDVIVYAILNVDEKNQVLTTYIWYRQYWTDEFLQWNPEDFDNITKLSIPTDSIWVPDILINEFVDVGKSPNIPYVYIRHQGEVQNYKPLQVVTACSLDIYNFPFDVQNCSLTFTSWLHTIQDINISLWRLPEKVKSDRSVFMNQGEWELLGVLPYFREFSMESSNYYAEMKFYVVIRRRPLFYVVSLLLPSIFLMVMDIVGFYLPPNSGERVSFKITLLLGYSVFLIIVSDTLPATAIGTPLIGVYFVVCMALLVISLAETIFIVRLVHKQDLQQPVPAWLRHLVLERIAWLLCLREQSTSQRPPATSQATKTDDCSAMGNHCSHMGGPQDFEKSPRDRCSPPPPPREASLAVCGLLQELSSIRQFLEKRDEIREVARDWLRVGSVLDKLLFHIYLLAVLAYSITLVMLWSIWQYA

[7] = molecular target: T7, 5-hydroxytryptamine receptor 5A (Homo sapiens, UniProt P47898); assay: Displacement of [3H]-LSD from human 5-HT5A receptor expressed in Flp-In CHO cells after 90 mins by microbeta scintillation counting analysis; format: cell-based
T7 sequence (P47898 whole entry): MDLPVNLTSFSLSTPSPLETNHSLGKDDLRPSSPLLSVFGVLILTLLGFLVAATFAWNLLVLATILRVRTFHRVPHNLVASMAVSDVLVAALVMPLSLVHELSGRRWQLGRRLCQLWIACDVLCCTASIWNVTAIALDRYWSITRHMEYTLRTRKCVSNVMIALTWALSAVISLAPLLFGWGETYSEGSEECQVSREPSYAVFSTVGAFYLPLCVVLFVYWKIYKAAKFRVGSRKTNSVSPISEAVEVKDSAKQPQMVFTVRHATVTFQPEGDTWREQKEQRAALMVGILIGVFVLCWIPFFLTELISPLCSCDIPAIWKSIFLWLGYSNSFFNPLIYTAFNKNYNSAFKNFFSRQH

[8] = molecular target: T8, 5-hydroxytryptamine receptor 6 (Homo sapiens, UniProt P50406); assay: Displacement of [3H]-LSD from human 5-HT6 receptor expressed in HEK cells after 90 mins by microbeta scintillation counting analysis; format: cell-based
T8 sequence (P50406 whole entry): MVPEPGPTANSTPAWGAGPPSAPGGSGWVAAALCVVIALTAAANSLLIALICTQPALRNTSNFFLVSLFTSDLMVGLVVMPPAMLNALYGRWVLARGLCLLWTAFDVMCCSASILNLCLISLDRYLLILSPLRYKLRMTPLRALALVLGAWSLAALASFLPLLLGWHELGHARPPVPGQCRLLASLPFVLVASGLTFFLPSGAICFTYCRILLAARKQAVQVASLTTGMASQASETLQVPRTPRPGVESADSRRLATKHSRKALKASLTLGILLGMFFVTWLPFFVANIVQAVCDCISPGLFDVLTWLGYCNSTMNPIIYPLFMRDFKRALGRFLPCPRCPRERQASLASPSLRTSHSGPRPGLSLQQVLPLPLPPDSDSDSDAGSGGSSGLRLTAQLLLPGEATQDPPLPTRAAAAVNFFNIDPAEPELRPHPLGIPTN

[9] = molecular target: T9, 5-hydroxytryptamine receptor 7 (Homo sapiens, UniProt P34969); assay: Displacement of [3H]-LSD from human 5-HT7A receptor expressed in HEK cells after 90 mins by microbeta scintillation counting analysis; format: cell-based
T9 sequence (P34969 whole entry): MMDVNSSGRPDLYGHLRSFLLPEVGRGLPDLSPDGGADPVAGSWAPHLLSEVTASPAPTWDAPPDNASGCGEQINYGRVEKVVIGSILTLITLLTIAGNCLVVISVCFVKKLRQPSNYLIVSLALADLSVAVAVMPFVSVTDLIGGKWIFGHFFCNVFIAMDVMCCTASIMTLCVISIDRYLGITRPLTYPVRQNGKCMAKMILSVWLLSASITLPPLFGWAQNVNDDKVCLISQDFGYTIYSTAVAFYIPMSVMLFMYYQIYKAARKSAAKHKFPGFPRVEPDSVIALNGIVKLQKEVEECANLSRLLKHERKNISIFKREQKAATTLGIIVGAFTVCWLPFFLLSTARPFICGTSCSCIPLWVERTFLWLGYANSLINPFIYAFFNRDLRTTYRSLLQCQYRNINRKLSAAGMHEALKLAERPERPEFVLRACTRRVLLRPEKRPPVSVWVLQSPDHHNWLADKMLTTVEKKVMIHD

[10] = molecular target: T1, 5-hydroxytryptamine receptor 2B; assay: Antagonist activity at 5-HT2B receptor (unknown origin) by calcium release assay; format: functional
[11] = molecular target: T9, 5-hydroxytryptamine receptor 7; assay: Antagonist activity at 5-HT7A receptor (unknown origin) by Tango assay
[12] = molecular target: T10, 5-hydroxytryptamine receptor 1A (Homo sapiens, UniProt P08908); assay: Antagonist activity at 5-HT1A receptor (unknown origin) by Tango assay; format: functional
T10 sequence (P08908 whole entry): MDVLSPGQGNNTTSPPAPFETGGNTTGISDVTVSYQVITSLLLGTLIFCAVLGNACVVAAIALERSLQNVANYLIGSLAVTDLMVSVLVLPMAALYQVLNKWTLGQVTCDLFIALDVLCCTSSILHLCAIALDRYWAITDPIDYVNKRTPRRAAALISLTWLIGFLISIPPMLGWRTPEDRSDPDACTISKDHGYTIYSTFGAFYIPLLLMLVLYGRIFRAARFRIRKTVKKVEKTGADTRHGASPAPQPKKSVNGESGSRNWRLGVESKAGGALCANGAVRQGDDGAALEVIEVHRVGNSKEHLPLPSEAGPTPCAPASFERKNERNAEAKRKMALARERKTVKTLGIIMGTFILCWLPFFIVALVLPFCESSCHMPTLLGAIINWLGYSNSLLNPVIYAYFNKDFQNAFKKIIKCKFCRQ

[13] = molecular target: T11, 5-hydroxytryptamine receptor 1B (Homo sapiens, UniProt P28222); assay: Displacement of [3H]5-CT from human 5-HT1B receptor expressed in HEK cells after 90 mins by microbeta scintillation counting analysis; format: cell-based
T11 sequence (P28222 whole entry): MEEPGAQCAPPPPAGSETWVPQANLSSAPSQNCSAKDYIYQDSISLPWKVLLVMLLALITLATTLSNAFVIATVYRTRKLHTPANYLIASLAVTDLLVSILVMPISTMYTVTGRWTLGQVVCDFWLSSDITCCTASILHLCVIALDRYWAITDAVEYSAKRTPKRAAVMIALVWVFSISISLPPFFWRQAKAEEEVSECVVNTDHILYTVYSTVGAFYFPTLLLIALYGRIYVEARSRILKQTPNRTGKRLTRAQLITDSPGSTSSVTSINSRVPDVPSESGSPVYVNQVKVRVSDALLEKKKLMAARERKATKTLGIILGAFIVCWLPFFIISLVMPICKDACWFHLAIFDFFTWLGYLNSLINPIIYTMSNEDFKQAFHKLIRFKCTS

[14] = molecular target: T11, 5-hydroxytryptamine receptor 1B; assay: Antagonist activity at 5-HT1B receptor (unknown origin) by Tango assay; format: functional
[15] = molecular target: 5-hydroxytryptamine receptor 4 (Homo sapiens, UniProt Q13639); assay: Antagonist activity at 5-HT4 receptor (unknown origin) by Tango assay; format: functional
Chain of 5-hydroxytryptamine receptor 4 (Q13639 whole entry): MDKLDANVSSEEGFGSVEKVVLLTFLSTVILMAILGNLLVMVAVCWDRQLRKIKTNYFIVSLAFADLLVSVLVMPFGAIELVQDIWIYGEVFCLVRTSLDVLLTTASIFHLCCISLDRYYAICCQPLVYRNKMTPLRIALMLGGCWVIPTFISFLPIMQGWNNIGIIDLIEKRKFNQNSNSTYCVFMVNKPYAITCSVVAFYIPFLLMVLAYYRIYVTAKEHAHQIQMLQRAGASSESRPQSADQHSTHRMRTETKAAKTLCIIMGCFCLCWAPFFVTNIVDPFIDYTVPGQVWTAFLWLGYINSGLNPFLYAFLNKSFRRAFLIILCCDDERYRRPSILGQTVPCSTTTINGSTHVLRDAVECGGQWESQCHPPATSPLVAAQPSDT

[16] = molecular target: T2, 5-hydroxytryptamine receptor 1D; assay: Antagonist activity at 5-HT1D receptor (unknown origin) by Tango assay; format: functional
[17] = molecular target: T11, 5-hydroxytryptamine receptor 1B; assay: Partial agonist activity at 5-HT1B receptor (unknown origin) by Tango assay; format: functional
[18] = molecular target: T11, 5-hydroxytryptamine receptor 1B; assay: Agonist activity at 5-HT1B receptor (unknown origin) at 2 uM by Tango assay; format: functional
[19] = molecular target: T11, 5-hydroxytryptamine receptor 1B; assay: Displacement of [3H]-LSD from human 5-HT1B receptor expressed in baculovirus infected Sf9 cells
[20] = molecular target: T1, 5-hydroxytryptamine receptor 2B; assay: Displacement of [3H]-LSD from human 5-HT2B receptor expressed in baculovirus infected Sf9 cells
[21] = molecular target: T2, 5-hydroxytryptamine receptor 1D; assay: Binding affinity to 5-HT1D receptor (unknown origin) by radioligand binding assay
[22] = molecular target: T3, 5-hydroxytryptamine receptor 1E; assay: Binding affinity to 5-HT1E receptor (unknown origin) by radioligand binding assay
[23] = molecular target: T4, 5-hydroxytryptamine receptor 2A; assay: Binding affinity to 5-HT2A receptor (unknown origin) by radioligand binding assay
[24] = molecular target: T5, 5-hydroxytryptamine receptor 2C; assay: Binding affinity to 5-HT2C receptor (unknown origin) by radioligand binding assay
[25] = molecular target: T6, 5-hydroxytryptamine receptor 3A; assay: Binding affinity to 5-HT3 receptor (unknown origin) by radioligand binding assay
[26] = molecular target: T7, 5-hydroxytryptamine receptor 5A; assay: Binding affinity to 5-HT5A receptor (unknown origin) by radioligand binding assay
[27] = molecular target: T8, 5-hydroxytryptamine receptor 6; assay: Binding affinity to 5-HT6 receptor (unknown origin) by radioligand binding assay
[28] = molecular target: T9, 5-hydroxytryptamine receptor 7; assay: Binding affinity to 5-HT7A receptor (unknown origin) by radioligand binding assay
[29] = molecular target: T5, 5-hydroxytryptamine receptor 2C; assay: Antagonist activity at 5-HT2C receptor (unknown origin) by calcium release assay; format: functional
[30] = molecular target: T1, 5-hydroxytryptamine receptor 2B; assay: Agonist activity at 5-HT2B receptor (unknown origin) by calcium release assay; format: functional
[31] = molecular target: T1, 5-hydroxytryptamine receptor 2B; assay: Ratio of IC50 for antagonist activity at 5-HT2B receptor (unknown origin) by calcium release assay to Ki for displacement of [3H]-LSD from human 5-HT2B receptor expressed in baculovirus infected Sf9 cells; format: functional

T1 sequence (P41595 whole entry): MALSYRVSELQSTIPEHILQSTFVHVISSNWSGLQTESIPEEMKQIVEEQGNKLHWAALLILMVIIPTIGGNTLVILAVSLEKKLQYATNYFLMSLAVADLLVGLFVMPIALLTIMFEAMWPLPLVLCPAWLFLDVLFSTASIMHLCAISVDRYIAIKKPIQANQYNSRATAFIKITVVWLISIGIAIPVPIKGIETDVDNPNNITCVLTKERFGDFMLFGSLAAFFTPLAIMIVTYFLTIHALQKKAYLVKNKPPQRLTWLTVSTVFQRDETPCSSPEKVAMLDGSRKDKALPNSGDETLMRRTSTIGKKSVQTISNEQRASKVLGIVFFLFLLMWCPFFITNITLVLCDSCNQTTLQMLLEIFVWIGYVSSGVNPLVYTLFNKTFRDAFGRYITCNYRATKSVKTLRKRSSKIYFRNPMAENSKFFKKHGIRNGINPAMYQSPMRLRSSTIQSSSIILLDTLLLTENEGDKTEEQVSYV

| SMILES | pKi [1] | pKi [2] | pKi [3] | pKi [4] | pKi [5] | pKi [6] | pKi [7] | pKi [8] | pKi [9] | pIC50 [10] | pIC50 [12] | pKi [19] | pKi [21] | pKi [22] | pKi [23] | pKi [24] | pKi [25] | pKi [26] | pKi [27] | pKi [28] | further results |
| --- | --- | --- | --- | --- | --- | --- | --- | --- | --- | --- | --- | --- | --- | --- | --- | --- | --- | --- | --- | --- | --- |
| C[C@@H]1SC(c2ccccc2)=N[C@H]1Cc1c[nH]cn1 (relative stereo) | 6.42 | 6.10 | < 5.00 | 5.24 | 5.92 | 6.82 | < 5.00 | < 5.00 | < 5.00 | 5.00 | < 5.00 | – | – | – | – | – | – | – | – | – | pIC50 [11]: < 5.00 |
| CCCCCCOc1ccc(C2=N[C@@H](CO)[C@H](C)S2)cc1 (relative stereo) | 5.37 | < 5.00 | < 5.00 | 5.41 | 5.77 | < 5.00 | < 5.00 | < 5.00 | < 5.00 | < 5.00 | < 5.00 | – | – | – | – | – | – | – | – | – | pKi [13]: < 5.00; pIC50 [14]: 5.72; pIC50 [15]: < 5.00; pIC50 [16]: < 5.00; pEC50 [17]: 6.74; inhibition [18]: 100% |
| C[C@@H]1SC(c2ccccc2O)=N[C@H]1[C@H]1SC[C@](C)(C(=O)O)N1C [WATASEMYCINS B] | – | – | – | – | – | – | – | – | – | – | – | < 5.00 | < 5.00 | < 5.00 | < 5.00 | < 5.00 | < 5.00 | < 5.00 | < 5.00 | < 5.00 | pKi [20]: 5.41 |
| COC(=O)[C@H](Cc1cnc[nH]1)NC(=O)[C@H]1N=C(c2ccccc2O)S[C@@H]1C | 6.00 | 5.48 | 5.85 | 6.51 | 6.09 | – | – | – | – | 5.00 | < 5.00 | – | – | – | – | – | – | – | – | – | pIC50 [29]: < 5.00 |
| C[C@@H]1SC(c2ccccc2)=N[C@@H]1Cc1c[nH]cn1 (relative stereo) | 6.16 | 5.80 | 5.40 | – | 6.12 | 7.11 | 5.17 | < 5.00 | 5.48 | < 5.00 | < 5.00 | – | – | – | – | – | – | – | – | – | pIC50 [11]: < 5.00 |
| OC[C@@H]1CSC(c2ccccc2O)=N1 [AERUGINE] | – | – | – | – | – | – | – | – | – | – | – | < 5.00 | < 5.00 | < 5.00 | < 5.00 | < 5.00 | < 5.00 | < 5.00 | < 5.00 | < 5.00 | – |
| C[C@@H]1SC(c2ccccc2O)=N[C@H]1[C@@H]1SC[C@](C)(C(=O)O)N1C [WATASEMYCINS A] | – | – | – | – | – | – | – | – | – | – | – | < 5.00 | < 5.00 | < 5.00 | < 5.00 | < 5.00 | < 5.00 | < 5.00 | < 5.00 | < 5.00 | pKi [20]: 5.33 |
| C[C@@H]1SC(c2ccccc2O)=N[C@@H]1CO [PULICATIN A] | – | – | – | – | – | – | – | – | – | 4.52 | – | < 5.00 | < 5.00 | < 5.00 | < 5.00 | < 5.00 | < 5.00 | < 5.00 | < 5.00 | < 5.00 | Activity [30]: inactive; Ratio [31]: 50 to 140 |
| C[C@@H]1SC(c2ccccc2O)=N[C@H]1Cc1c[nH]cn1 (racemic) | 7.33 | 5.70 | < 5.00 | 5.85 | 6.85 | 6.62 | < 5.00 | 5.59 | 5.44 | 6.10 | < 5.00 | – | – | – | – | – | – | – | – | – | pIC50 [29]: 5.17 |
| O=Cc1csc(-c2ccccc2O)n1 | – | – | – | – | – | – | – | – | – | – | – | < 5.00 | < 5.00 | < 5.00 | < 5.00 | < 5.00 | < 5.00 | < 5.00 | < 5.00 | < 5.00 | pKi [20]: 5.82 |
| CCCCOc1ccc(C2=N[C@@H](CO)[C@H](C)S2)cc1 (relative stereo) | 5.12 | 5.01 | < 5.00 | 5.66 | 5.49 | < 5.00 | < 5.00 | < 5.00 | < 5.00 | < 5.00 | < 5.00 | – | – | – | – | – | – | – | – | – | pKi [13]: < 5.00; pIC50 [14]: 5.68; pIC50 [15]: < 5.00; pIC50 [16]: < 5.00; pEC50 [17]: 7.54; inhibition [18]: 100% |
